Results published in US8524257B2, “Menthol-containing solids composition” (Symrise AG, priority 2005, dated 2013).

Assays:
[1] = cited from earlier work
[2] = Dissolving test in ethanol/water, time to complete dissolution; assay type: physicochemical; conditions: 5 g in 95 g ethanol/water (equal parts by weight), 20° C., stirred, visual determination
Description: The different rates of dissolution of a solids composition according to the invention of Example 1a above and of forms of l-menthol that are not in accordance with the invention were compared.
To this end, 5 g of l-menthol or 5 g of the l-menthol-containing solids composition according to the invention of Example 1a were added to 95 g of a mixture, kept at a constant temperature of 20° C., of equal parts by weight of ethanol and water, and the time taken for the menthol or the menthol-containing solids composition to dissolve completely (visual determination) was calculated.
The dissolving test was carried out in a glass beaker having a diameter of 5 cm and a filling height of 7 cm. The contents of the glass beaker were stirred during the dissolving test in each case using a magnetic stirring bead having a length of 4 cm with a magnetic stirrer speed of 4 revolutions per second. The temperature was monitored with a Pt-100 thermometer which was immersed to a depth of 5 cm in the liquid, was located at a distance of 1 cm from the wall of the glass beaker and at the same time served as flow breaker.
The size of the crystals corresponded to the typical (commercial) crystal geometry of natural l-menthol.

Row | SMILES | Time to complete dissolution [2] [s] | further results
1 | CC1CCC(C(C)C)C(O)C1 (stereo not drawn) [menthol pressed articles, menthol] |  | clumping and caking ([1]; stored for prolonged periods of over three months): gradually clump and cake together
2 | CC(C)[C@@H]1CC[C@@H](C)C[C@H]1O [Menthol pellets according to WO 03/101924, Example 1] [l-menthol] | 504 | 
3 | CC(C)[C@@H]1CC[C@@H](C)C[C@H]1O [flaked l-menthol, l-menthol] |  | adhesion and clumping ([1]; after 24 hours, as described in U.S. Pat. No. 3,064,311): adhesion and clumping of the flakes
4 | CC(C)[C@@H]1CC[C@@H](C)C[C@H]1O [Menthol crystals from Example 1, l-menthol] | 170 | 
5 | CC(C)[C@@H]1CC[C@@H](C)C[C@H]1O [Crystals of natural menthol, l-menthol] | 255 | 
6 | CC(C)[C@@H]1CC[C@@H](C)C[C@H]1O [Clumped menthol crystals, l-menthol] | 280 | 
